From ChEMBL document CHEMBL6182949 (J Med Chem, 2025)
Calls of active or inactive are those of the source. No cut-off for these calls is given here.

Columns and labels:
[1] = molecular target: T1, Interleukin-1 receptor-associated kinase 4 (Homo sapiens, UniProt Q9NWZ3); assay: Inhibition of IRAK4 (unknown origin)
T1 sequence (Q9NWZ3 whole entry): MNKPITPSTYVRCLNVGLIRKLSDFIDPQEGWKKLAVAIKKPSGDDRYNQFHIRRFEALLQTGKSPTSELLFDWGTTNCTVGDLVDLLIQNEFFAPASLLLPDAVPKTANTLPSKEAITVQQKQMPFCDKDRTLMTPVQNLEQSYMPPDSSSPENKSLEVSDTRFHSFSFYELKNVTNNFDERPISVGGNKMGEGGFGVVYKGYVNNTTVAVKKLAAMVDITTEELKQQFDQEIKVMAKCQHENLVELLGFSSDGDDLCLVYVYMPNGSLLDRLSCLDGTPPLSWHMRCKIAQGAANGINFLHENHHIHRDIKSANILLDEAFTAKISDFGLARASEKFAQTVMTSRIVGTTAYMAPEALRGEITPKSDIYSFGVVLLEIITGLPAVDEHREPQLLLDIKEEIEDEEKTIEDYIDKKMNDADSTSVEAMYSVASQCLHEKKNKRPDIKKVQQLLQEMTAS

[2] = AUClast in Sprague-Dawley rat at 10 mg/kg, po measured up to 24 hrs by LC-MS/MS analysis; format: ADME, organism-based; conditions: in vivo
[3] = Metabolic stability in human liver microsome assessed as half life at 1 uM measured up to 60 mins in presence of NADPH by LC-MS/MS analysis; format: ADME; conditions: liver microsomes
[4] = Tmax in Sprague-Dawley rat at 10 mg/kg, po measured up to 24 hrs by LC-MS/MS analysis; format: ADME, organism-based; conditions: in vivo
[5] = AUClast in male C57BL/6 mouse at 10 mg/kg, po measured up to 24 hrs by LC-MS/MS analysis; format: ADME, organism-based; conditions: in vivo
[6] = Metabolic stability in mouse liver microsome assessed as half life at 1 uM measured up to 60 mins in presence of NADPH by LC-MS/MS analysis; format: ADME; conditions: liver microsomes
[7] = Volume of distribution at steady state in Sprague-Dawley rat at 2 mg/kg, iv measured up to 24 hrs by LC-MS/MS analysis; format: ADME, organism-based; conditions: in vivo, read-out: Vdss
[8] = Volume of distribution at steady state in male C57BL/6 mouse at 2 mg/kg, iv measured up to 24 hrs by LC-MS/MS analysis; format: ADME, organism-based; conditions: in vivo, read-out: Vdss
[9] = Half life in Sprague-Dawley rat at 2 mg/kg, iv measured up to 24 hrs by LC-MS/MS analysis; format: ADME, organism-based; conditions: in vivo
[10] = AUClast in Sprague-Dawley rat at 2 mg/kg, iv measured up to 24 hrs by LC-MS/MS analysis; format: ADME, organism-based; conditions: in vivo
[11] = Clearance in male C57BL/6 mouse at 2 mg/kg, iv measured up to 24 hrs by LC-MS/MS analysis; format: ADME, organism-based; conditions: in vivo
[12] = Oral bioavailability in Sprague-Dawley rat at 10 mg/kg measured up to 24 hrs by LC-MS/MS analysis; format: ADME, organism-based; conditions: in vivo
[13] = Oral bioavailability in male C57BL/6 mouse at 10 mg/kg measured up to 24 hrs by LC-MS/MS analysis; format: ADME, organism-based; conditions: in vivo
[14] = Cmax in male C57BL/6 mouse at 10 mg/kg, po measured up to 24 hrs by LC-MS/MS analysis; format: ADME, organism-based; conditions: in vivo
[15] = molecular target: T2, Protein cereblon/Interleukin-1 receptor-associated kinase 4 (Homo sapiens, UniProt Q9NWZ3+Q96SW2); assay: PROTAC activity at CRBN/IRAK4 in human THP-1 cells assessed as induction of IRAK4 degradation incubated for 24 hrs by HiBiT lytic reagent based analysis relative to control; format: cell-based
Target sequence in this assay (Q96SW2 whole entry, looked up, one chain of several): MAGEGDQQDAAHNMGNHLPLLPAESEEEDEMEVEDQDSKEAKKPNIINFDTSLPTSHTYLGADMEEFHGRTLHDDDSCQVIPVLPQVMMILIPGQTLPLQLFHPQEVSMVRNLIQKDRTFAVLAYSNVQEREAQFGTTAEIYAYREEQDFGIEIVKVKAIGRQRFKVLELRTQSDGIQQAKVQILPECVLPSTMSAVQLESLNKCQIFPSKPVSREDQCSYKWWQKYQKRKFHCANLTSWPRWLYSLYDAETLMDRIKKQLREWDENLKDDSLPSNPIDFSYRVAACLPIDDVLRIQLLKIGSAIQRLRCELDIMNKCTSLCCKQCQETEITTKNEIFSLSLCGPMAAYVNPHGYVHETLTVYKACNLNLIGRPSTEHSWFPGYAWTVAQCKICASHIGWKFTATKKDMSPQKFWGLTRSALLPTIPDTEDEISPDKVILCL

[16] = Cmax in Sprague-Dawley rat at 10 mg/kg, po measured up to 24 hrs by LC-MS/MS analysis; format: ADME, organism-based; conditions: in vivo
[17] = Half life in Sprague-Dawley rat at 10 mg/kg, po measured up to 24 hrs by LC-MS/MS analysis; format: ADME, organism-based; conditions: in vivo
[18] = Half life in male C57BL/6 mouse at 10 mg/kg, po measured up to 24 hrs by LC-MS/MS analysis; format: ADME, organism-based; conditions: in vivo
[19] = Metabolic stability in dog liver microsome assessed as half life at 1 uM measured up to 60 mins in presence of NADPH by LC-MS/MS analysis; format: ADME, Canis lupus familiaris; conditions: liver microsomes
[20] = Metabolic stability in cynomolgus monkey liver microsome assessed as half life at 1 uM measured up to 60 mins in presence of NADPH by LC-MS/MS analysis; format: ADME, Macaca fascicularis; conditions: liver microsomes
[21] = Clearance in Sprague-Dawley rat at 2 mg/kg, iv measured up to 24 hrs by LC-MS/MS analysis; format: ADME, organism-based; conditions: in vivo
hERG (KCNH2) [22] = molecular target: T3, hERG (KCNH2) (Homo sapiens, UniProt Q12809); assay: Inhibition of hERG expressed in HEK293 cells at 3 uM by manual patch clamp assay relative to control; format: toxicity, cell-based; conditions: HEK293 cells expressing hERG
T3 sequence (Q12809 whole entry): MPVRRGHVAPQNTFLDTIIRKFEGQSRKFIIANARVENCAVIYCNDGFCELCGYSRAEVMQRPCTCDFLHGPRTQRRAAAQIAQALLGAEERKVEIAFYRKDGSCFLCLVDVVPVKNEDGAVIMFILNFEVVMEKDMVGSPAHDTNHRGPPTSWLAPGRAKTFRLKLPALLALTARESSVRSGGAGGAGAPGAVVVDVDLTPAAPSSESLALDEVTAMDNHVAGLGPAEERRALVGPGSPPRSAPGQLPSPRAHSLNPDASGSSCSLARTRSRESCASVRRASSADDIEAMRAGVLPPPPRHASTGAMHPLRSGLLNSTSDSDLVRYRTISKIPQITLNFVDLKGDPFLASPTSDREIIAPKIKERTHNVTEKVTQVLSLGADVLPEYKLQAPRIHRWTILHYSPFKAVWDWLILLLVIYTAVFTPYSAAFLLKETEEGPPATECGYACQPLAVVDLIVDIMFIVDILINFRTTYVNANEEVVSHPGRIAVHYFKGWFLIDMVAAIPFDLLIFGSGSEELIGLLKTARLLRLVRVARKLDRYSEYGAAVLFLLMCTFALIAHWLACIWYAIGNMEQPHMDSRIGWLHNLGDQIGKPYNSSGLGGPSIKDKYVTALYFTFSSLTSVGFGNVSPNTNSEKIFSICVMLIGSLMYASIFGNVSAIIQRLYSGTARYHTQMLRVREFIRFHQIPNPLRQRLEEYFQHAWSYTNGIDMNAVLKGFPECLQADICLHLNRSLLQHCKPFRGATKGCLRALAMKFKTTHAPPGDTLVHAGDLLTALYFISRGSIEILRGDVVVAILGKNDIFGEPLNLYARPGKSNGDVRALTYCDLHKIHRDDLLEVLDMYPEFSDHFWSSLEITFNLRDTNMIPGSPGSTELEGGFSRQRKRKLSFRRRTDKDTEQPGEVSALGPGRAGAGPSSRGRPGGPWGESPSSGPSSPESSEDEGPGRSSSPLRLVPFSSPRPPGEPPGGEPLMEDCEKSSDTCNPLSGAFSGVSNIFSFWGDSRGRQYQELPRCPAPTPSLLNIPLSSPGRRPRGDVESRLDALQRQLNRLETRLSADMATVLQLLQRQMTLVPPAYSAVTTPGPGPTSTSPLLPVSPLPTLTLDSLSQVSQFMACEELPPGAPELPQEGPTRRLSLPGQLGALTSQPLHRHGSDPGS

[23] = Cmax in male C57BL/6 mouse at 2 mg/kg, iv measured up to 24 hrs by LC-MS/MS analysis; format: ADME, organism-based; conditions: in vivo
[24] = molecular target: T2, Protein cereblon/Interleukin-1 receptor-associated kinase 4; assay: PROTAC activity at CRBN/IRAK4 in human THP-1 cells assessed as induction of IRAK4 degradation incubated for 24 hrs by HiBiT lytic reagent based analysis; format: cell-based
Target sequence in this assay (Q96SW2 whole entry, one chain of several): as the sequence (Q96SW2 whole entry, looked up, one chain of several) above

[25] = Metabolic stability in rat liver microsome assessed as half life at 1 uM measured up to 60 mins in presence of NADPH by LC-MS/MS analysis; format: ADME; conditions: liver microsomes
[26] = Half life in male C57BL/6 mouse at 2 mg/kg, iv measured up to 24 hrs by LC-MS/MS analysis; format: ADME, organism-based; conditions: in vivo
[27] = AUClast in male C57BL/6 mouse at 2 mg/kg, iv measured up to 24 hrs by LC-MS/MS analysis; format: ADME, organism-based; conditions: in vivo
[28] = Tmax in male C57BL/6 mouse at 10 mg/kg, po measured up to 24 hrs by LC-MS/MS analysis; format: ADME, organism-based; conditions: in vivo
[29] = Cmax in Sprague-Dawley rat at 2 mg/kg, iv measured up to 24 hrs by LC-MS/MS analysis; format: ADME, organism-based; conditions: in vivo
hERG (KCNH2) [30] = molecular target: T3, hERG (KCNH2); assay: Inhibition of hERG expressed in HEK293 cells at 1 uM by manual patch clamp assay relative to control; format: toxicity, cell-based; conditions: HEK293 cells expressing hERG
Mus musculus [31] = assay: Anti-arthritic activity against collagen-induced arthritis DBA/1 mouse model assessed as reduction in pathological score at 30 mg/kg, po administered for 14 days; format: functional, organism-based; conditions: time 14.0 day
hERG = hERG (Homo sapiens, UniProt Q12809); assay: Inhibition of hERG expressed in HEK293 cells at 10 uM by manual patch clamp assay relative to control; format: toxicity, cell-based; conditions: HEK293 cells expressing hERG
Chain of hERG (Q12809 whole entry): as the sequence (Q12809 whole entry) above

[32] = molecular target: T2, Protein cereblon/Interleukin-1 receptor-associated kinase 4; assay: PROTAC activity at CRBN/IRAK4 in human PBMC cells assessed as induction of IRAK4 degradation incubated for 24 hrs by HiBiT lytic reagent based analysis relative to control; format: cell-based
Target sequence in this assay (Q96SW2 whole entry, looked up, one chain of several): as the sequence (Q96SW2 whole entry, looked up, one chain of several) above

[33] = Inhibition of LPS-stimulated IL-6 release in human PBMC cells; format: functional, cell-based
Mus musculus [34] = assay: Anti-psoriasis effect in IMQ-induced C57BL/6 mouse assessed as reduction in delta ear thickness at 100 mg/kg administered topically twice daily for 6 days and measured after 24 hrs; format: functional, organism-based; conditions: time 7.0 day
Mus musculus [35] = assay: Anti-psoriasis effect in IMQ-induced C57BL/6 mouse assessed as reduction in cumulative score at 30 mg/kg administered topically twice daily for 6 days and measured after 24 hrs; format: functional, organism-based; conditions: time 7.0 day
Mus musculus [36] = assay: Anti-psoriasis effect in IMQ-induced C57BL/6 mouse assessed as reduction in delta ear thickness at 30 mg/kg administered topically twice daily for 6 days and measured after 24 hrs; format: functional, organism-based; conditions: time 7.0 day
Mus musculus [37] = assay: Anti-psoriasis effect in IMQ-induced C57BL/6 mouse assessed as reduction in cumulative score at 100 mg/kg administered topically twice daily for 6 days and measured after 24 hrs; format: functional, organism-based; conditions: time 7.0 day

Row | AUClast [2] [ng·h/mL] | half-life at 1 µM [3] [h] | Tmax [4] [h] | AUC(0-t) at 24 h [5] [ng·h/mL] | half-life at 1 µM [6] [h] | Vd [7] [L/kg] | Vd [8] [L/kg] | half-life [9] [h] | AUClast [10] [ng·h/mL] | clearance [11] [mL/min/kg] | F [12] [%] | bioavailability [13] [%] | Cmax [14] [ng/mL] | Emax [15] [%] | Cmax [16] [ng/mL] | half-life [17] [h] | half-life [18] [h] | half-life at 1 µM [19] [h] | clearance [21] [mL/min/kg] | DC50 [24] [nM] | Structure (SMILES) | other results
1 | 3395 | > 3.07 | 8 | 42100 | > 3.07 | 3.69 | 0.6 | 2.42 | 1436 | 2.44 | 15 | 59 | 3490 | 87 | 352 | 3.16 | 3.82 | > 3.07 | 21.4 | 1.37 | Cn1c(=O)n(C2CCC(=O)NC2=O)c2cccc(C#CCO[C@H]3CC[C@H](CN4CCC5(CC4)Cc4cc(NC(=O)c6cnn7cccnc67)c(N6CCC(O)CC6)cc4O5)CC3)c21 (stereo partly specified) | half-life at 1 µM [20]: 1.07 h; inhibition at 3 µM (hERG (KCNH2) [22]): 35%; Cmax [23]: 2780 ng/mL; half-life at 1 µM [25]: > 3.07 h; half-life [26]: 2.76 h; AUC(0-t) at 24 h [27]: 14100 ng·h/mL; Tmax [28]: 4 h; Cmax [29]: 696 ng/mL
2 | 8344 | > 3.07 | 6 | 27000 | > 3.07 | 3.12 | 0.96 | 3.14 | 424 | 2.83 | 21 | 47 | 2280 | 87 | 628 | 2.94 | 4.27 | > 3.07 | 12.4 | 2.24 | Cn1c(=O)n(C2CCC(=O)NC2=O)c2cccc(C#CCO[C@H]3CC[C@H](CN4CCC5(CC4)Cc4cc(NC(=O)c6cnn7cc(F)cnc67)c(N6CCC(CO)CC6)cc4O5)CC3)c21 (stereo partly specified) | inhibition at 1 µM (hERG (KCNH2) [30]): 36%; Cmax [23]: 1380 ng/mL; half-life [26]: 4.07 h; AUC(0-t) at 24 h [27]: 11700 ng·h/mL; Tmax [28]: 4 h; Cmax [29]: 243 ng/mL
3 |  | > 3.07 |  |  | > 3.07 |  |  |  |  |  |  |  |  | 38 |  |  |  | > 3.07 |  | 12 | Cn1c(=O)n(C2CCC(=O)NC2=O)c2cccc(C#CCO[C@H]3CC[C@H](CN4CCC5(CC4)Cc4cc(NC(=O)c6cnn7cccnc67)c(N6CCC(C(=O)O)CC6)cc4O5)CC3)c21 (stereo partly specified) | inhibition at 10 µM (hERG): 43%

The remaining lines, values behind:

Row | Structure (SMILES) | AUClast [2] [ng·h/mL] | half-life at 1 µM [3] [h] | Tmax [4] [h] | AUC(0-t) at 24 h [5] [ng·h/mL] | half-life at 1 µM [6] [h] | Vd [7] [L/kg] | Vd [8] [L/kg] | half-life [9] [h] | AUClast [10] [ng·h/mL] | clearance [11] [mL/min/kg] | F [12] [%] | bioavailability [13] [%] | Cmax [14] [ng/mL] | Emax [15] [%] | Cmax [16] [ng/mL] | half-life [17] [h] | half-life [18] [h] | half-life at 1 µM [19] [h] | clearance [21] [mL/min/kg] | DC50 [24] [nM] | other results
4 | CN1CCC2(CC1)Cc1cc(NC(=O)c3cnn4cccnc34)c(N3CCC(CO)CC3)cc1O2 |  |  |  |  |  |  |  |  |  |  |  |  |  |  |  |  |  |  |  |  | IC50 [1]: 0.91 nM
5 | C[C@@H]1CCN(C(=O)CC#N)C[C@@H]1N(C)c1ncnc2[nH]ccc12 |  |  |  |  |  |  |  |  |  |  |  |  |  |  |  |  |  |  |  |  | Activity (Mus musculus [31]): Active
6 | Cn1c(=O)n(C2CCC(=O)NC2=O)c2cccc(C#CCO[C@H]3CC[C@H](CN4CCC5(CC4)Cc4cc(NC(=O)c6cnn7cccnc67)c(N6CCC(CO)CC6)cc4O5)CC3)c21 (stereo partly specified) | 3524 | > 3.07 | 6 | 14800 | > 3.07 | 3.26 | 0.94 | 3.94 | 2193 | 4.67 | 11 | 42 | 1540 | 90 | 261 | 3.58 | 3.7 | > 3.07 | 15.1 | 2.65 | inhibition at 1 µM (hERG (KCNH2) [30]): 28%; half-life at 1 µM [20]: 2.33 h; Cmax [23]: 2000 ng/mL; half-life at 1 µM [25]: > 3.07 h; half-life [26]: 2.69 h; AUC(0-t) at 24 h [27]: 7160 ng·h/mL; Tmax [28]: 2 h; Cmax [29]: 1030 ng/mL
7 | Cn1c(=O)n(C2CCC(=O)NC2=O)c2cccc(C#CCOC3CCN(C[C@H]4CC[C@H](n5cc(NC(=O)c6cnn7ccc(N8C[C@H]9C[C@@H]8CO9)nc67)c(C(F)F)n5)CC4)CC3)c21 (stereo partly specified) [KT-474] |  |  |  |  |  |  |  |  |  |  |  |  |  |  |  |  |  |  |  |  | Emax [32]: 82%; IC50 [33]: 29.1 nM; Activity (Mus musculus [34]): inactive; Activity (Mus musculus [35]): inactive; Activity (Mus musculus [36]): inactive; Activity (Mus musculus [37]): inactive
